Data: ChEMBL document CHEMBL1201862, “PubChem BioAssay data set” (2004)
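Assay format: 96-well plates, 48-hour exposure. At the GI50, growth is halved.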 Activity calls are given as the source filed them. Rule as the data show it: active = GI50 up to about 1.1 µM and inactive = higher.

Columns and labels:
Assay in all cases: NCI tumour cell line growth inhibition, 48 h
SF-295 = tested on: SF-295
KM12 = tested on: KM12
SK-MEL-28 = tested on: SK-MEL-28
PC-3 = tested on: PC-3
K562 = tested on: K562
A498 = tested on: A498
HOP-62 = tested on: HOP-62
DU-145 = tested on: DU-145
786-0 = tested on: 786-0
MCF7 = tested on: MCF7
CAKI-1 = tested on: CAKI-1
MDA-MB-231 = tested on: MDA-MB-231
IGROV-1 = tested on: IGROV-1
OVCAR-4 = tested on: OVCAR-4
SF-539 = tested on: SF-539
MOLT-4 = tested on: MOLT-4
RXF 393 = tested on: RXF 393
UACC-257 = tested on: UACC-257
HCC 2998 = tested on: HCC 2998
TK-10 = tested on: TK-10
T47D = tested on: T47D
M14 = tested on: M14
OVCAR-3 = tested on: OVCAR-3
MDA-N = tested on: MDA-N
SK-OV-3 = tested on: SK-OV-3
Hs-578T = tested on: Hs-578T
NCI/ADR-RES = tested on: NCI/ADR-RES
SK-MEL-5 = tested on: SK-MEL-5
EKVX = tested on: EKVX
Malme-3M = tested on: Malme-3M
SK-MEL-2 = tested on: SK-MEL-2
UO-31 = tested on: UO-31
ACHN = tested on: ACHN
HOP-92 = tested on: HOP-92
LOX IMVI = tested on: LOX IMVI
UACC-62 = tested on: UACC-62
OVCAR-5 = tested on: OVCAR-5
SNB-75 = tested on: SNB-75
HCT-15 = tested on: HCT-15
HCT-116 = tested on: HCT-116
U-251 = tested on: U-251
NCI-H23 = tested on: NCI-H23
SN12C = tested on: SN12C
COLO 205 = tested on: COLO 205
SW-620 = tested on: SW-620
HT-29 = tested on: HT-29
MDA-MB-435 = tested on: MDA-MB-435
NCI-H226 = tested on: NCI-H226
SR = tested on: SR
OVCAR-8 = tested on: OVCAR-8
SNB-19 = tested on: SNB-19
SF-268 = tested on: SF-268
HL-60 = tested on: HL-60
A549 = tested on: A549
CCRF-CEM = tested on: CCRF-CEM
NCI-H460 = tested on: NCI-H460
NCI-H522 = tested on: NCI-H522
RPMI-8226 = tested on: RPMI-8226
BT-549 = tested on: BT-549

COC(=O)CCC(=O)c1ccc2c(c1)CC1(C2)Cc2ccc3c(c2C1)CCCC3=O (stereo not given)
GI50 (SF-295): 26 µM (inactive)
GI50 (KM12): 14.7 µM (inactive)
GI50 (SK-MEL-28): 25.5 µM (inactive)
GI50 (PC-3): 24.3 µM (inactive)
GI50 (K562): 2.88 µM (inactive)
GI50 (A498): 20.7 µM (inactive)
GI50 (HOP-62): > 53.5 µM (inactive)
GI50 (DU-145): 33.7 µM (inactive)
GI50 (786-0): 29.9 µM (inactive)
GI50 (MCF7): 12.2 µM (inactive)
GI50 (CAKI-1): 16.4 µM (inactive)
GI50 (MDA-MB-231): > 73.5 µM (inactive)
GI50 (IGROV-1): 21.9 µM (inactive)
GI50 (OVCAR-4): 24.1 µM (inactive)
GI50 (SF-539): 11.9 µM (inactive)
GI50 (MOLT-4): 489 nM (active)
GI50 (RXF 393): > 53 µM (inactive)
GI50 (UACC-257): 18.9 µM (inactive)
GI50 (HCC 2998): 38.3 µM (inactive)
GI50 (TK-10): 41 µM (inactive)
GI50 (T47D): 34.8 µM (inactive)
GI50 (M14): 9.1 µM (inactive)
GI50 (OVCAR-3): 10.1 µM (inactive)
GI50 (MDA-N): 4.85 µM (inactive)
GI50 (SK-OV-3): 50.6 µM (inactive)
GI50 (Hs-578T): 56.1 µM (inactive)
GI50 (NCI/ADR-RES): 29 µM (inactive)
GI50 (SK-MEL-5): 10.5 µM (inactive)
GI50 (EKVX): 56.8 µM (inactive)
GI50 (Malme-3M): 18.4 µM (inactive)
GI50 (SK-MEL-2): 7.31 µM (inactive)
GI50 (UO-31): 18.2 µM (inactive)
GI50 (ACHN): 21.1 µM (inactive)
GI50 (HOP-92): 15.5 µM (inactive)
GI50 (LOX IMVI): 20 µM (inactive)
GI50 (UACC-62): > 26.1 µM (inactive)
GI50 (OVCAR-5): 40.1 µM (inactive)
GI50 (SNB-75): 86.5 µM (inactive)
GI50 (HCT-15): 8.15 µM
GI50 (HCT-116): > 34 µM (inactive)
GI50 (U-251): 25 µM (inactive)
GI50 (NCI-H23): 31 µM (inactive)
GI50 (SN12C): 38.1 µM (inactive)
GI50 (COLO 205): 21.5 µM (inactive)
GI50 (SW-620): 20.7 µM (inactive)
GI50 (HT-29): 11.2 µM (inactive)
GI50 (MDA-MB-435): 3.73 µM (inactive)
GI50 (NCI-H226): 27.8 µM (inactive)
GI50 (SR): 297 nM (active)
GI50 (OVCAR-8): 26.7 µM (inactive)
GI50 (SNB-19): 27.2 µM (inactive)
GI50 (SF-268): 33.8 µM (inactive)
GI50 (HL-60): 3.94 µM (inactive)
GI50 (A549): > 57 µM (inactive)
GI50 (CCRF-CEM): 1.78 µM (inactive)
GI50 (NCI-H460): 25.2 µM (inactive)
GI50 (NCI-H522): 21.4 µM (inactive)

CC(=O)O[C@H]1C(=O)[C@@]2(C)[C@H]([C@H](OC(=O)c3ccccc3)[C@]3(O)C[C@H](OC(=O)[C@H](O)[C@@H](NC(=O)c4ccco4)c4ccccc4)C(C)=C1C3(C)C)[C@]1(OC(C)=O)CO[C@@H]1C[C@@H]2O
GI50 (SF-295): 0.00624 µM (active)
GI50 (KM12): < 0.00125 µM (active)
GI50 (SK-MEL-28): > 12.5 µM (inactive)
GI50 (PC-3): < 0.00125 µM (active)
GI50 (K562): < 0.00125 µM (active)
GI50 (A498): 0.0141 µM (active)
GI50 (RPMI-8226): < 1.25 nM (active)
GI50 (HOP-62): < 0.00125 µM (active)
GI50 (DU-145): 0.00205 µM (active)
GI50 (786-0): 0.00421 µM (active)
GI50 (MCF7): < 0.00125 µM (active)
GI50 (CAKI-1): 0.278 µM (active)
GI50 (MDA-MB-231): 0.013 µM (active)
GI50 (IGROV-1): 0.0019 µM (active)
GI50 (OVCAR-4): > 10.7 µM (inactive)
GI50 (SF-539): < 0.00125 µM (active)
GI50 (MOLT-4): 2.86 nM (active)
GI50 (RXF 393): 0.00407 µM (active)
GI50 (HCC 2998): < 0.00125 µM (active)
GI50 (TK-10): 0.022 µM (active)
GI50 (T47D): < 0.00125 µM (active)
GI50 (M14): < 0.00125 µM (active)
GI50 (OVCAR-3): < 0.00125 µM (active)
GI50 (MDA-N): < 0.00125 µM (active)
GI50 (SK-OV-3): < 0.00125 µM (active)
GI50 (Hs-578T): < 0.00125 µM (active)
GI50 (NCI/ADR-RES): 2.64 µM (inactive)
GI50 (SK-MEL-5): < 0.00125 µM (active)
GI50 (EKVX): 0.0112 µM (active)
GI50 (SK-MEL-2): < 0.00125 µM (active)
GI50 (UO-31): 0.627 µM (active)
GI50 (ACHN): 0.043 µM (active)
GI50 (LOX IMVI): < 0.00125 µM (active)
GI50 (UACC-62): < 0.00125 µM (active)
GI50 (OVCAR-5): < 0.00125 µM (active)
GI50 (SNB-75): < 0.00125 µM (active)
GI50 (HCT-15): 0.249 µM
GI50 (HCT-116): < 0.00125 µM (active)
GI50 (U-251): < 0.00125 µM (active)
GI50 (NCI-H23): 0.00136 µM (active)
GI50 (COLO 205): < 0.00125 µM (active)
GI50 (SW-620): < 0.00125 µM (active)
GI50 (HT-29): < 0.00125 µM (active)
GI50 (MDA-MB-435): < 0.00125 µM (active)
GI50 (NCI-H226): 0.00126 µM (active)
GI50 (SR): < 1.25 nM (active)
GI50 (OVCAR-8): < 0.00125 µM (active)
GI50 (SNB-19): 0.00134 µM (active)
GI50 (SF-268): 0.00162 µM (active)
GI50 (HL-60): < 0.00125 µM (active)
GI50 (A549): < 0.00125 µM (active)
GI50 (CCRF-CEM): < 0.00125 µM (active)
GI50 (NCI-H460): < 0.00125 µM (active)
GI50 (NCI-H522): < 0.00125 µM (active)

CC(C)CC(=O)O[C@H]1C(=O)O[C@@H]2C[C@H]3[C@H](C)C(=O)C(O[C@@H]4O[C@H](CO)[C@@H](O)[C@H](O)[C@H]4O)=C[C@]3(C)[C@H]3[C@@H](O)[C@H](O)[C@]4(C(=O)O)OC[C@]32[C@@H]14 [BRUCEOSIDE E]
GI50 (KM12): 70.1 µM (inactive)
GI50 (PC-3): 80.9 µM (inactive)
GI50 (BT-549): 95.1 µM (inactive)
GI50 (TK-10): 59.6 µM (inactive)
GI50 (T47D): 94.6 µM (inactive)
GI50 (M14): 91.2 µM (inactive)
GI50 (MDA-N): 82 µM (inactive)
GI50 (SK-OV-3): 52.1 µM (inactive)
GI50 (UO-31): 71.4 µM (inactive)
GI50 (UACC-62): 60 µM (inactive)
GI50 (OVCAR-5): 94 µM (inactive)
GI50 (SNB-75): 78 µM (inactive)
GI50 (NCI-H23): 52.4 µM (inactive)
GI50 (MDA-MB-435): 61.2 µM (inactive)
